# Measurements published in patent US20230075779A1, “METHODS AND COMPOSITIONS FOR TREATING CANCER OR VIRAL INFECTION WITH A PLA2G2D ANTAGONIST” (Apeximmune Therapeutics Inc., priority 2020, published 2023).
# “Also recorded” adds a separate entry of the source.
# Legend:
# [1] = system: PBMC derived CD4+ and CD8+ T cells; assay: T cell proliferation (CFSE) in anti-CD3/anti-CD28 stimulated PBMC culture, soluble protein; format: cell-based, human; conditions: soluble protein 0-20 μg/ml, 72 hours
# Experimental: The effect of human PLA2G2D-Fc on T cell activation was assessed in peripheral blood mononuclear cell (PBMC) or isolated T cell cultures. PBMC were isolated from leukoreduction system (LRS) chambers from healthy human donors by centrifugation over Ficoll-Paque Plus (GE Life Sciences) and labeled in a 5 μM CFSE solution (Molecular Probes) for 12 min at 37° C. and washed. 2×10^5 labeled PBMC per well of a 96 well round bottom plate were then stimulated with 1 μg/ml anti-CD3 (OKT3, Invitrogen) and 0.2 μg/ml anti-CD28 (CD28.2, Invitrogen) in the presence of soluble 0-20 μg/ml human PLA2G2D-Fc or control human IgG1-Fc protein (Sino Biological) as indicated in a final volume of 200 μl RPMI (Corning). PBMC cultures were incubated for 72 hours at 37° C. before the supernatants were harvested and measured for IFNγ and IL-2 levels using MSD V-plex assays (Meso Scale Discovery). T cell proliferation within the PBMC culture was simultaneously assessed by staining cells with fluorophore-conjugated anti-CD3, anti-CD4, and anti-CD8 antibodies (Biolegend) and Live/Dead Fixable dead cell stain (Molecular Probes), and running on a BD LSRFortessa X-20 flow cytometer (Becton Dickinson). FACS data was analyzed using FlowJo software. […]
# [2] = system: CD4+ and CD8+ T cells in PBMC cultures; assay: T cell proliferation in stimulated PBMC culture, plate-immobilized protein; format: cell-based, human; conditions: immobilized protein coated at 0-10 μg/ml
# Experimental: The effect of human PLA2G2D-Fc on T cell activation was assessed in peripheral blood mononuclear cell (PBMC) or isolated T cell cultures. […] PBMC cultures were incubated for 72 hours at 37° C. before the supernatants were harvested and measured for IFNγ and IL-2 levels using MSD V-plex assays (Meso Scale Discovery). T cell proliferation within the PBMC culture was simultaneously assessed by staining cells with fluorophore-conjugated anti-CD3, anti-CD4, and anti-CD8 antibodies (Biolegend) and Live/Dead Fixable dead cell stain (Molecular Probes), and running on a BD LSRFortessa X-20 flow cytometer (Becton Dickinson). FACS data was analyzed using FlowJo software.
# To assess the effect of immobilized PLA2G2D protein on T cell proliferation in PBMC cultures, the same assay was utilized except 100 μl of 0-10 μg/ml human PLA2G2D-Fc or control human IgG1-Fc protein was coated overnight in PBS at 4° C. on 96-well flat bottom plates the day before PBMC were prepared and added along with anti-CD3 and anti-CD28 antibodies.
# [3] = system: PBMC cultures; assay: IFNγ and IL-2 levels in stimulated PBMC culture supernatants (MSD V-plex); format: cell-based, human; conditions: soluble protein 0-20 μg/ml, 72 hours
# Experimental: The effect of human PLA2G2D-Fc on T cell activation was assessed in peripheral blood mononuclear cell (PBMC) or isolated T cell cultures. PBMC were isolated from leukoreduction system (LRS) chambers from healthy human donors by centrifugation over Ficoll-Paque Plus (GE Life Sciences) and labeled in a 5 μM CFSE solution (Molecular Probes) for 12 min at 37° C. and washed. 2×10^5 labeled PBMC per well of a 96 well round bottom plate were then stimulated with 1 μg/ml anti-CD3 (OKT3, Invitrogen) and 0.2 μg/ml anti-CD28 (CD28.2, Invitrogen) in the presence of soluble 0-20 μg/ml human PLA2G2D-Fc or control human IgG1-Fc protein (Sino Biological) as indicated in a final volume of 200 μl RPMI (Corning). PBMC cultures were incubated for 72 hours at 37° C. before the supernatants were harvested and measured for IFNγ and IL-2 levels using MSD V-plex assays (Meso Scale Discovery). T cell proliferation within the PBMC culture was simultaneously assessed by staining cells with fluorophore-conjugated anti-CD3, anti-CD4, and anti-CD8 antibodies (Biolegend) and Live/Dead Fixable dead cell stain (Molecular Probes), and running on a BD LSRFortessa X-20 flow cytometer (Becton Dickinson). FACS data was analyzed using FlowJo software.
# [4] = system: primary human T cells; assay: Binding of PLA2G2D-Fc to resting and activated primary human T cells (FACS); conditions: 0-10 μg/ml
# Experimental: To determine whether PLA2G2D elicits immune suppression by directly binding to T cells in vitro, the level of PLA2G2D binding was assessed on resting and activated primary human T cells. T cells were isolated from PBMC using a Pan T Cell Isolation Kit (Miltenyi) and cultured in the presence or absence of beads loaded with anti-human CD2, CD3, and CD28 antibodies (human T Cell Activation/Expansion Kit, Miltenyi) in RPMI for 48 hours at 37° C. Stimulated or unstimulated T cells were then harvested, washed, and incubated with 0-10 μg/ml of human PLA2G2D-Fc protein or human IgG1-Fc protein for 30 minutes at 4° C. Cells were washed 3 times with PBS and then stained with Alexa 488-conjugated goat anti-human IgG1 antibodies (Invitrogen) for 30 minutes at 4° C., washed, then analyzed by FACS.
# [5] = system: isolated T cells; assay: Proliferation of isolated T cell cultures with anti-CD3/anti-CD28 stimulation; format: cell-based, human
# Experimental: To evaluate the effect of PLA2G2D protein on isolated T cells, […] protein as well as with 1 μg/ml anti-CD3 (OKT3) and 0.2 μg/ml anti-CD28 (CD28.2) in 100 μl of PBS. The following day, plates were washed twice with PBS before addition of T cells. T cells were isolated from PBMC using a Pan T Cell Isolation Kit (Miltenyi) and labeled with CFSE as described above. 1×10^5 purified and labeled T cells were added to each well of the coated plate in a final volume of 200 μl RPMI. T cells were allowed to proliferate for 72 hours at 37° C. before supernatants were collected for IFNγ and IL-2 analysis by MSD and proliferation was analyzed by FACS.
# [6] = target: T1, PLA2G2D (Homo sapiens, UniProt Q9UNK4); assay: Reversal of PLA2G2D-Fc induced suppression of T cell proliferation in PBMC culture by sPLA2 inhibitor; format: cell-based; conditions: 0-25 μM inhibitor, PBMC culture with wild type PLA2G2D-Fc
# T1 sequence (Q9UNK4 21-145): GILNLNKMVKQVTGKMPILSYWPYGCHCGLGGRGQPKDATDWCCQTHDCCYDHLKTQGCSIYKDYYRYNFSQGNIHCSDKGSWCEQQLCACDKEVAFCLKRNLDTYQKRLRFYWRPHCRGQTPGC
Compound,CD4+ and CD8+ T cell proliferation [1],CD4+ and CD8+ T cell proliferation ([1]; listed as PLA2G2D protein),CD4+ and CD8+ T cell proliferation [2],CD4+ and CD8+ T cell proliferation ([2]; listed as PLA2G2D protein),levels of IFNγ and IL-2 [3],levels of IFNγ and IL-2 ([3]; listed as PLA2G2D protein),"binding to activated CD4+ and CD8+ T cells ([4]; stimulated T cells, compared with control human IgG1-Fc)",binding to unstimulated T cells ([4]; unstimulated T cells),"proliferation of isolated T cell cultures ([5]; immobilized protein coated at 0-10 μg/ml, 72 hours)",suppressive effect on isolated T cells ([5]; soluble protein added instead of coated (data not shown)),reversal of immune suppression induced by PLA2G2D [6]
PLA2G2D-Fc: soluble human PLA2G2D-Fc protein (Sino Biological); the immunosuppressive protein studied,dose-dependently suppresses; also recorded: dose dependently suppressed,dose-dependently suppresses,suppressed,dose-dependently suppresses,dose-dependently and significantly decreased,dose-dependently suppresses,preferentially binds,to a small degree,dose-dependently suppresses,no suppressive effect,
CCc1c(C(=O)C(N)=O)c2c(OCC(=O)O)cccc2n1Cc1ccccc1 [LY315920],,,,,,,,,,,does not rescue immune suppression; also recorded: does not reverse immune suppression
